From patent publication US11497740B2, “Use of Jumonji C demethylase inhibitors for the treatment and prevention of chemotherapy resistance and radioresistance in cancer” (THE BOARD OF REGENTS OF THE UNIVERSITY OF TEXAS SYSTEM, priority 2016, dated 2022) come the findings set out here.

Experiment [1] relates to H1299 NSCLC xenografts. As to the kind of experiment: Tumor growth delay with JIB-04 and IR, H1299 xenografts. The experiment is classed as in vivo, mice. To be noted: JIB-04 50 mg/kg oral gavage, IR 2 Gy 4 h after drug, every other day, 12 doses. As for the experimental part:
H1299 NSCLC cells were injected subcutaneously (5×10^6 cells in 100 μL) into the right posterior leg of female athymic nude mice (nu/nu, 5-6 weeks old). Treatment was initiated when the subcutaneous tumors reached an average size of 150 to 200 mm^3. Mice were treated with JIB-04 (50 mg/kg/day) by oral gavage or with vehicle (12.5% Cremophor EL, 12.5% DMSO as an aqueous suspension) as control; radiation was administered 4 hours after treatment. The treatment regimen consisted of a total of 12 doses of drug and/or ionizing radiation given every other day. Tumor growth delay and the dose enhancement factor were then determined. Body weight and general health were monitored every other day during the drug-treatment period and afterward. Standard survival criteria was applied to ensure animals including severe lethargy, 20% weight loss, tumor burden >2,000 mm^3 and difficulty breathing. Survival data was analyzed using GraphPad Prism software.

Experiment [2] relates to non-homologous end joining (NHEJ). As to the kind of experiment: Green fluorescent protein NHEJ reporter assay, H1299. The experiment is classed as cell-based, Human. To be noted: H1299 cells with integrated construct. As for the experimental part: (§1) The green fluorescent protein assay was performed as described by Seluanov et al. To generate reporter cell lines 2 million H1299 cells were transfected with 0.5 μg of linearized NHEJ-I, or HR reporter constructs using the Amaxa Nucleofector; program X-005. G418, at 1 mg/ml, was added to the media 1 day post-transfection. Then Transient expression of the I-SceI endonuclease was used to generate a DNA DSB at the integrated GFP gene sequences. Briefly, H1299 cells containing the NHEJ or the HR constructs treated by 4 h with JIB-04 or DMSO were transfected with the pCMV3xnls-I-SceI (5 μg, functional endonuclease) and a pN1-mCherry plasmid (0.05 μg) as transfection control as previously stated. For the analysis of NHEJ and HR cells were harvested, resuspended in ˜1 ml 1×PBS, put on ice, and run on a BD FACScan instrument. GFP and mCherry fluorescence was analyzed using FlowJo software. Red-versus-green was plotted and DNA repair efficiency was calculated from the number of GFP-positive cells divided by the number of cells mCherry-positive cells.
(Reporter assays use an easily measured gene product as a stand-in for the process of interest.)

For experiment [3], the system named is homologous recombination (HR). The experiment is described as follows: Green fluorescent protein HR reporter assay, H1299. The experiment is classed as cell-based, Human. To be noted: H1299 cells with integrated construct. As for the experimental part:
as §1

In experiment [4] the test system is RAD51. The experiment is described as follows: RAD-51 foci kinetics after IR. The experiment is classed as cell-based, Human. The conditions noted are these: JIB-04 25 nM 4 h, 10 Gy. The procedure:
NSCLCs were seeded onto Lab-Tek II Chamber Slides (Thermo Fisher) and 24 hours later pretreated with JIB-04 or DMSO for 4 h. Then cells were exposed to a total dose of 2 Gy (γH2AX and 53BP1) or 10 Gy (RAD-51 and DNAPKcs p-T2609) radiation. For knockdown and overexpression experiments H1299 cells were transfected using the Amaxa Nucleofector; program X-005. Specifically, 3×10^6 were transfected with siRNA duplexes targeting JMJD2A, JMJD2B, Jarid1A, Jarid1b, scrambled siRNA (250 nM final concentration) or expression vectors pCMVHA-JMJD2A, pCMVHA-JMJD2B, pCMVHA-Jarid1A, pCMVHA-Jarid1B, PC-2 for 72 hours, followed by quantification of expression or irradiation. Then, cells were fixed in 4% formaldehyde/PBS for 15 min, permeabilized with 0.5% Triton X-100 for 15 min on ice, and blocked with 5% bovine serum albumin in PBS for 1 h. The slides were incubated with an antibody against phospho-Histone γH2AX (1:1000, 3 h at room temperature), 53BP1 (1:500, 3 h at room temperature), Rad-51 (1:500, 48 hs 4° C.) or DNAPKcs p-T2609 (1:500, 48 hs 4° C.). Alexa Fluor 488-conjugated goat anti-Rabbit, […] goat anti-mouse or rhodamine red-conjugated goat anti-mouse secondaries antibodies were used (1:1000, 1 h at room temperature). […] Cells were analyzed on a Zeiss upright fluorescent microscope.

The test system of experiment [5] is H3K4me3 at DSBs. As to the kind of experiment: γH2AX immunoprecipitation, H3K4me3 at DSBs. The conditions noted are these: JIB-04 4 h, IR 20 Gy. The class given is cell-based, Human. The procedure: For Histone demethylase activity determination 10×10^6 H1299 cells were seeded in P150 plates. Next day cells were preincubated with JIB-04 for 4 h and then irradiated with 20 Gy. Media was removed from cells, washed with PBS and fixed with 3% w/v PFA, 2% w/v sucrose in PBS for 1 min. Then cells were washed, scraped into media, pelleted by centrifugation (at 500 g for 2 min) and washed with Phosphatase inhibitor 1×, 1 μM Wortmannin (WM) and protease inhibitors 1× (Sigma). Cell pellets were re-suspended in 2.5× the packed cell volume (PCV) of Nucleosome Preparation Buffer (NPB, 10 mM HEPES [pH 7.9], 10 mM KCl, 1.0 mM CaCl2, 1.5 mM MgCl2, 0.34 M sucrose, 10% glycerol, 1 mM DTT, 0.1% Triton X-100) containing Phosphatase inhibitor, 1 μM Wortmannin (WM) and protease inhibitors (Sigma) and 100 U ml-1 micrococcal nuclease (MNase) and incubated at […] for 45 min (note: WM is required to block in vitro DNA-PK/ATM activation by MNase-produced DSBs). An equal volume of Nucleosome Solubilization Buffer (NSB=Nucleosome preparation buffer+2% [v/v] NP-40, 2% [v/v] Triton X-100, 600 mM NaCl) was then added. Samples were then vortexed, sonicated briefly and centrifuged at 10,000 rpm for 10 min. […] Protein levels on samples were quantified and equal amounts of protein run on 4-12% SDS acrylamide gels. […] Quantification was done using the using ImageJ software (National Institute of Health, NIH)

Bounds are passed on as bounds.

With `Clc1ccc(N/N=C(\c2ccccc2)c2ccccn2)nc1` [JIB-04], in experiment [1], the “survival of tumor bearing mice, JIB-04 with IR” value is given as “survived significantly longer” and the “tumor growth, JIB-04 with IR” value is listed as “synergistic robust inhibition of tumor growth”. The NHEJ repair efficiency in experiment [2] is reported as ≤ 50 % of normal levels. Moreover, the HR repair efficiency in experiment [3] was ≤ 50 % of normal levels. In experiment [4], the RAD51 foci resolution result was “impaired foci resolution” and the “RAD51 recruitment (foci formation)” value is recorded as “significantly diminished RAD51 recruitment”. Besides, the “H3K4me3 at sites of DNA damage marked by γH2AX” value in experiment [5] is recorded as “increased H3K4me3”.
